Test results from patent publication US6737383B1, “Herbicidal oxadiazolidines” (priority 1999, dated 2004).

Columns and labels:
bedstraw = assay: Test B pre/postemergence bedstraw; format: in vivo, Galium aparine; settings: Preemergence
Summary of the method: (§1)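 Test chemicals in a non-phytotoxic solvent mixture with surfactant were sprayed preemergence onto planted seeds and postemergence onto plants 2 to 18 cm tall (1- to 4-leaf stage). After twelve to sixteen days in a greenhouse, injury was visually rated against untreated controls from 0 (no effect) to 10 (complete control).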

rape = assay: Test B pre/postemergence rape; format: in vivo, Brassica napus; settings: Preemergence
Summary of the method: as §1

giant foxtail = assay: Test B pre/postemergence giant foxtail; format: in vivo, Setaria faberii; settings: Preemergence
Summary of the method: as §1

morningglory = assay: Test B pre/postemergence morningglory; format: in vivo, Ipomoea hederacea; settings: Preemergence
Summary of the method: as §1

wild oat = assay: Test B pre/postemergence wild oat; format: in vivo, Avena fatua; settings: Preemergence
Summary of the method: as §1

wheat = assay: Test B pre/postemergence wheat; format: in vivo, Triticum aestivum; settings: Preemergence
Summary of the method: as §1

corn = assay: Test B pre/postemergence corn; format: in vivo, Zea mays; settings: Preemergence
Summary of the method: as §1

surinam grass = assay: Test B pre/postemergence surinam grass; format: in vivo, Brachiaria decumbens; settings: Preemergence
Summary of the method: as §1

bamyardgrass = assay: Test B flood test barnyardgrass; format: in vivo, Echinochloa crus-galli
Summary of the method: (§2)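 Flood test on plants grown to the 2-leaf stage; treated plants kept in greenhouse twelve to sixteen days, then visually rated against controls on a 0 (no effect) to 10 (complete control) scale.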

sugar beet = assay: Test B pre/postemergence sugar beet; format: in vivo, Beta vulgaris; settings: Preemergence
Summary of the method: as §1

purple nutsedge = assay: Test B pre/postemergence purple nutsedge; format: in vivo, Cyperus rotundus; settings: Preemergence
Summary of the method: as §1

crabgrass = assay: Test B pre/postemergence crabgrass; format: in vivo, Digitaria sanguinalis; settings: Preemergence
Summary of the method: as §1

rice = assay: Test B flood test rice; format: in vivo, Oryza sativa
Summary of the method: as §2

pigweed = assay: Test B pre/postemergence pigweed; format: in vivo, Amaranthus retroflexus; settings: Preemergence
Summary of the method: as §1

duck salad = assay: Test B flood test duck salad; format: in vivo, Heteranthera limosa
Summary of the method: as §2

soybean = assay: Test B pre/postemergence soybean; format: in vivo, Glycine max; settings: Preemergence
Summary of the method: as §1

smallflower flatsedge = assay: Test B flood test smallflower flatsedge; format: in vivo, Cyperus difformis
Summary of the method: as §2

blackgrass = assay: Test B pre/postemergence blackgrass; format: in vivo, Alopecurus myosuroides; settings: Preemergence
Summary of the method: as §1

cocklebur = assay: Test B pre/postemergence cocklebur; format: in vivo, Xanthium strumarium; settings: Preemergence
Summary of the method: as §1

velvetleaf = assay: Test B pre/postemergence velvetleaf; format: in vivo, Abutilon theophrasti; settings: Preemergence
Summary of the method: as §1

[1] = Rate 125 g/ha, scale of 0 to 10 where 0 is no effect and 10 is complete control
[2] = Rate 250 g/ha, scale 0 (no effect) to 10 (complete control)
[3] = Rate 500 g/ha, scale 0 to 10 (0 no effect, 10 complete control)
[4] = Rate 62 g/ha, scale of 0 to 10 where 0 is no effect and 10 is complete control
[5] = Pre-emergence, Rate 62 g/ha, scale 0 to 10, 0 is no effect, 10 is complete control
[6] = Rate 125 g/ha, Pre-emergence section (flood test species), scale 0 to 10, 0 no effect, 10 complete control
[7] = Rate 250 g/ha, Pre-emergence (flood test species), scale 0 to 10, 0 is no effect, 10 is complete control
[8] = Rate 500 g/ha, Pre-emergence section of Table B, 0 to 10 scale (0 no effect, 10 complete control)

## CC(C)N(C(=O)n1oc(=O)n(C(C)C2CC2)c1=O)c1ccc(F)cc1F (centres unmarked) [Compound 720]
bedstraw; [1]
  Plant response rating, Bedstraw: 10
bedstraw; [2]
  Bedstraw plant response rating: 10
bedstraw; [3]
  Bedstraw plant response rating: 10
rape; [4]
  Rape plant response rating: 6
rape; [1]
  Plant response rating, Rape: 7
rape; [2]
  Rape plant response rating: 9
rape; [3]
  Rape plant response rating: 9
Giant foxtail; [4]
  Giant foxtail plant response rating: 9
Giant foxtail; [1]
  Plant response rating, Giant foxtail: 10
Giant foxtail; [2]
  Giant foxtail plant response rating: 10
Giant foxtail; [3]
  Giant foxtail plant response rating: 10
morningglory; [4]
  Morningglory plant response rating: 0
morningglory; [1]
  Plant response rating, Morningglory: 0
morningglory; [3]
  Morningglory plant response rating: 2
Wild oat; [4]
  Wild oats plant response rating: 7
Wild oat; [1]
  Plant response rating, Wild oats: 8
Wild oat; [2]
  Wild oats plant response rating: 9
Wild oat; [3]
  Wild oats plant response rating: 9
wheat; [4]
  Wheat plant response rating: 0
wheat; [1]
  Plant response rating, Wheat: 0
wheat; [2]
  Wheat plant response rating: 5
wheat; [3]
  Wheat plant response rating: 5
corn; [4]
  Corn plant response rating: 0
corn; [1]
  Plant response rating, Corn: 2
corn; [2]
  Corn plant response rating: 4
Surinam grass; [4]
  B. signalgrass plant response rating: 8
Surinam grass; [1]
  Plant response rating, B. signalgrass: 9
Surinam grass; [2]
  B. signalgrass plant response rating: 10
Surinam grass; [3]
  B. signalgrass plant response rating: 10
bamyardgrass; [5]
  Barnyardgrass plant response rating: 0
bamyardgrass; [6]
  Barnyardgrass plant response rating: 0
bamyardgrass; [7]
  Barnyardgrass plant response rating: 0
bamyardgrass; [8]
  Barnyardgrass plant response rating: 0
Sugar beet; [4]
  Sugarbeets plant response rating: 4
Sugar beet; [1]
  Plant response rating, Sugarbeets: 6
Sugar beet; [2]
  Sugarbeets plant response rating: 8
Sugar beet; [3]
  Sugarbeets plant response rating: 8
Purple nutsedge; [1]
  Plant response rating, Nutsedge: 0
Purple nutsedge; [3]
  Nutsedge plant response rating: 0
crabgrass; [4]
  Crabgrass plant response rating: 9
crabgrass; [1]
  Plant response rating, Crabgrass: 9
crabgrass; [2]
  Crabgrass plant response rating: 10
crabgrass; [3]
  Crabgrass plant response rating: 10
rice; [5]
  Rice plant response rating: 0
rice; [6]
  Rice plant response rating: 0
rice; [7]
  Rice plant response rating: 0
rice; [8]
  Rice plant response rating: 0
pigweed; [4]
  Redroot pigweed plant response rating: 8
pigweed; [1]
  Plant response rating, Redroot pigweed: 9
pigweed; [2]
  Redroot pigweed plant response rating: 10
pigweed; [3]
  Redroot pigweed plant response rating: 10
Duck salad; [5]
  Ducksalad plant response rating: 0
Duck salad; [6]
  Ducksalad plant response rating: 0
Duck salad; [7]
  Ducksalad plant response rating: 0
Duck salad; [8]
  Ducksalad plant response rating: 0
soybean; [4]
  Soybean plant response rating: 0
soybean; [1]
  Plant response rating, Soybean: 0
soybean; [2]
  Soybean plant response rating: 0
soybean; [3]
  Soybean plant response rating: 0
Smallflower flatsedge; [5]
  S. Flatsedge plant response rating: 0
Smallflower flatsedge; [6]
  S. Flatsedge plant response rating: 0
Smallflower flatsedge; [7]
  S. Flatsedge plant response rating: 0
Smallflower flatsedge; [8]
  S. Flatsedge plant response rating: 0
blackgrass; [4]
  Blackgrass plant response rating: 9
blackgrass; [1]
  Plant response rating, Blackgrass: 9
blackgrass; [2]
  Blackgrass plant response rating: 10
blackgrass; [3]
  Blackgrass plant response rating: 10
cocklebur; [4]
  Cocklebur plant response rating: 0
cocklebur; [1]
  Plant response rating, Cocklebur: 0
cocklebur; [2]
  Cocklebur plant response rating: 0
velvetleaf; [4]
  Velvetleaf plant response rating: 1
velvetleaf; [1]
  Plant response rating, Velvetleaf: 2
velvetleaf; [2]
  Velvetleaf plant response rating: 3
velvetleaf; [3]
  Velvetleaf plant response rating: 3
